# Reference: ChEMBL document CHEMBL1158300, “New Cephalotaxus Alkaloids from Cephalotaxus harringtonia var. drupacea” (J Nat Prod, 1996)
# System: P388
# Experiment: Cytotoxicity against mouse P388 cells
# Type: functional, cell-based
row,SMILES,IC50 [µg/mL]
1,COC(=O)C[C@](O)(CC(C)C)C(=O)O[C@@H]1C(OC)=C[C@]23CCCN2CCc2cc4c(cc2[C@H]13)OCO4 [NORDEOXYHARRINGTONINE],0.027
2,COC(=O)C[C@](O)(CCCCC(C)C)C(=O)O[C@@H]1C(OC)=C[C@]23CCCN2CCc2cc4c(cc2[C@H]13)OCO4 [BISHOMODEOXYHARRINGTONINE],0.024
3,COC(=O)C[C@](O)(CCCC(C)C)C(=O)O[C@@H]1C(OC)=C[C@]23CCCN2CCc2cc4c(cc2[C@H]13)OCO4 [HOMODEOXYHARRINGTONINE],0.056
